We go through 5 compounds from patent US20080182882A1, “N-HYDROXYAMIDINOHETEROCYCLES AS MODULATORS OF INDOLEAMINE 2,3-DIOXYGENASE” (INCYTE CORPORATION, priority 2006, published 2008).

For experiment [1], the target named is T1, Human indoleamine 2,3-dioxygenasae (IDO) (Homo sapiens, UniProt P14902).
T1 construct: His tag (N); made in house; host or cells: E. coli
As to the kind of experiment: Human indoleamine 2,3-dioxygenase (IDO) enzyme assay. To be noted: 95 nM IDO, 2 mM D-Trp, pH 6.5, room temperature. It is filed as biochemical. The procedure:
Human indoleamine 2,3-dioxygenasae (IDO) with an N-terminal His tag was expressed in E. coli and purified to homogeneity. IDO catalyzes the oxidative cleavage of the pyrrole ring of the indole nucleus of tryptophan to yield N′-formylkynurenine. The assays were performed at room temperature as described in the literature using 95 nM IDO and 2 mM D-Trp in the presence of 20 mM ascorbate, 5 μM methylene blue and 0.2 mg/mL catalase in 50 mM potassium phosphate buffer (pH 6.5). The initial reaction rates were recorded by continuously following the absorbance increase at 321 nm due to the formation of N′-formlylkynurenine. See: Sono, M., Taniguchi, T., Watanabe, Y., and Hayaishi, O. (1980) J. Biol. Chem. 255, 1339-1345 Compound activity is provided in Table 2 below.

The target of experiment [2] is T2, indoleamine 2,3-dioxygenase (IDO) in HeLa cells (Homo sapiens, UniProt P14902).
T2 construct: host or cells: HeLa cells, IFN-γ induced
T2 sequence (P14902 whole entry): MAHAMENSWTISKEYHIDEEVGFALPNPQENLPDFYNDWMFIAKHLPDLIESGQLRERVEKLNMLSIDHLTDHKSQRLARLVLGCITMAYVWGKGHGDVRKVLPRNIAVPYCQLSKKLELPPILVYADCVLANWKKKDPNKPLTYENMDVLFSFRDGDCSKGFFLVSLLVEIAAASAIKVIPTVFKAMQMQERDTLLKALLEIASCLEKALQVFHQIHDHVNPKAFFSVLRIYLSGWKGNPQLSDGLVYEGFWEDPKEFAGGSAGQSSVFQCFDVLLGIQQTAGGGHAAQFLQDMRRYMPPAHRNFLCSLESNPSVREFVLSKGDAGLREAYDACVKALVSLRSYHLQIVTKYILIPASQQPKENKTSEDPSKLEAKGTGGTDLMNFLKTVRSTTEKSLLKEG
The experiment can be described thus: HeLa cell-based indoleamine 2,3-dioxygenase (IDO)/kynurenine assay. To be noted: IFN-γ 50 ng/mL, 48 hours incubation, kynurenine at 480 nm. The procedure:
HeLa cells (#CCL-2) can be obtained from the American Type Tissue Culture Collection (ATCC, Manassas, Va.) and routinely maintained in minimum essential medium (eagle) with 2 mM L-glutamine and Earle's BSS adjusted to contain 1.5 g/L sodium bicarbonate, 0.1 mM non-essential amino acids, 1 mM sodium pyruvate and 10% fetal bovine serum (all from Invitrogen). Cells are kept at 37° C. in a humidified incubator supplied with 5% CO2. The assay is performed as follows: HeLa cells are seeded in a 96 well culture plate at a density of 5×10^3 per well and grown overnight. On the next day, IFN-γ (50 ng/mL final concentration) and serial dilutions of compounds (in total volume of 200 μL culture medium) are added into cells. After 48 hours of incubation, 140 μL of the supernatant per well is transferred to a new 96 well plate. 10 μL of 6.1 N trichloroacetic acid (#T0699, Sigma) is mixed into each well and incubated at 50° C. for 30 min to hydrolyze N-formylkynurenine produced by indoleamine 2,3-dioxygenase to kynurenine. […] The yellow color derived from Kynurenine is measured at 480 nm using a SPECTRAmax 250 microplate reader (Molecular Devices). […] The percent inhibition at individual concentrations is determined and the average values of duplicates are obtained. The data is analyzed by using nonlinear regression to generate IC50 values (Prism Graphpad). […]

The next experiment relates to LLC tumors. To be noted: LLC tumors in C57B1/6 mice, versus placebo (Friberg, M., et al); cited from earlier work.
In a further experiment the test system is P815 tumor. The settings on record: pre-immunized immune-competent mice, IDO-expressing tumors (Uyttenhove, C., et al); cited from earlier work.

T1 sequence (P14902 whole entry): as above

`Cc1ccc(Cl)cc1CNC(=NO)c1nonc1CO` [Example 1, N-(5-chloro-2-methylbenzyl)-N′-hydroxy-4-(hydroxymethyl)-1,2,5-oxadiazole-3-carboximidamide]: the IC50 (usually the concentration at which inhibition is half-maximal) in experiment [1] was under 1 µM; in experiment [2] it was under 0.5 µM. `Cc1ccc(C)c(CNC(=NO)c2nonc2CO)c1` [Example 4] yielded an IC50 in experiment [1] of under 5 µM.

As for `OCc1nonc1C(=NO)NCc1cc(Cl)ccc1Cl` [Example 2], the IC50 in experiment [1] is under 5 µM.

Regarding `Cn1cc(C[C@H](N)C(=O)O)c2ccccc21` [Example 1-MT, 1-methyl-tryptophan], in the experiment with LLC tumors, the formation of tumors result is “markedly delayed”. Further, the growth of tumors entry in the experiment with P815 tumor is “inhibited”. `OCc1nonc1C(=NO)NCc1cc(Br)ccc1F` [Example 3]: the IC50 was under 1 µM in experiment [1] and under 0.5 µM in experiment [2].
